Test results published in ChEMBL document CHEMBL1177800, “Inhibition of ABCG2-mediated drug efflux by naphthopyrones from marine crinoids” (Bioorg Med Chem Lett, 2010).

Assays:
[1] = molecular target: T1, Broad substrate specificity ATP-binding cassette transporter ABCG2 (Homo sapiens, UniProt Q9UNQ0); experiment: Inhibition of ABCG2-mediated drug efflux expressed in human NCI-H460 cells; format: cell-based
T1 sequence (Q9UNQ0 whole entry): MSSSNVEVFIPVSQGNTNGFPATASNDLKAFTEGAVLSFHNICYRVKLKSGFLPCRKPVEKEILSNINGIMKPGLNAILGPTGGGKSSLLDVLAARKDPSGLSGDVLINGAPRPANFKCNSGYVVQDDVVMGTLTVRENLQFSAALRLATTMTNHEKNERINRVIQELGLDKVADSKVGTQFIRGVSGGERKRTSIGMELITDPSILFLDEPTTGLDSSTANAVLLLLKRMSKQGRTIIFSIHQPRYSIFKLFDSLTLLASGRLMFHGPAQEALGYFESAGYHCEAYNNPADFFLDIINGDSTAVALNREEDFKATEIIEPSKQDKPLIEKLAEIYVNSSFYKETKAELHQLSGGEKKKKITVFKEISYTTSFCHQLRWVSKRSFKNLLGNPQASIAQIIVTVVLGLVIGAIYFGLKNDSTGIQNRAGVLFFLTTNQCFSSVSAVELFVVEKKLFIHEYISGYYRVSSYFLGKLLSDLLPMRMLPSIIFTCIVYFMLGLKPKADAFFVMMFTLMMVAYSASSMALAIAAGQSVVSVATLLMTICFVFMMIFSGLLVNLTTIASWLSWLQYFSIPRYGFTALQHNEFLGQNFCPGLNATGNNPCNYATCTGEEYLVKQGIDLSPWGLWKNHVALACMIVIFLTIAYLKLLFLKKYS

[2] = molecular target: T1, Broad substrate specificity ATP-binding cassette transporter ABCG2; experiment: Inhibition of ABCG2 expressed in human NCI-H460 cells assessed as inhibition of PhA accumulation relative to fumitremorgin C; format: cell-based

Row | Structure (SMILES) | IC50 ([1]; nci-h460) | inhibition (INH) [2] | IC50 ([1]; read-out: IC50) [µM]
1 | COc1cc(O)c2c(O)c3c(=O)cc(C)oc3c(OC)c2c1 | Not Active | Not Active | –
2 | COc1c(O)c2c(=O)cc(C)oc2c2c(OC)cc(O)cc12 | – | 59.3% | 11.9
3 | COc1c(OC)c2c(=O)cc(C)oc2c2c(OC)cc(O)cc12 | Not Active | Not Active | –
4 | CCCc1cc(=O)c2c(OC)cc3cc(O)cc(OC)c3c2o1 | – | 46.3% | 5.9
5 | CCCc1cc(=O)c2c(OC)c(OC)c3cc(O)cc(OC)c3c2o1 | – | 44% | 16.6
6 | CCCc1cc(=O)c2c(O)c(OC)c3cc(O)cc(OC)c3c2o1 | – | 27.5% | > 20

Further lines, results first:

Row | IC50 ([1]; nci-h460) | inhibition (INH) [2] | IC50 ([1]; read-out: IC50) [µM] | Structure (SMILES)
7 | Not Active | Not Active | – | CCCc1cc(=O)c2c(O)c3c(O)cc(OC)cc3c(OC)c2o1
8 | Not Active | Not Active | – | CCCc1cc(=O)c2c(O)c3c(OC)cc(O)cc3cc2o1
9 | Not Active | Not Active | – | COc1cc(O)cc2cc3oc(C)cc(=O)c3c(O)c12
10 | – | 31% | 12.8 | COc1cc(O)cc2cc(O)c3c(=O)cc(C)oc3c12
11 | – | 54.3% | 9 | CCCc1cc(=O)c2c(O)cc3cc(O)cc(OC)c3c2o1 [COMAPARVIN]
